Measured values taken from ChEMBL document CHEMBL4138114, “Pharmacophore guided discovery of small-molecule interleukin 15 inhibitors” (Eur J Med Chem, 2017).
The source made the active and inactive calls. The rule behind the calls is not given here.

How the values were obtained:
Format in all cases: cell-based
[1] = molecular target: T1, IL15-IL15 receptor (Homo sapiens) (UniProt P40933+Q13261); assay: Inhibition of IL-15 (unknown origin)/IL-15Ralpha interaction in human PBMC cells assessed as reduction of TNF-alpha synthesis preincubated for 30 mins followed by IL-15 addition measured after 48 hrs by ELISA
PBMC = assay: Cytotoxicity against human PBMC cells up to 200 uM after 48 hrs by CellTiter 96 AQueous one solution cell proliferation assay
[2] = molecular target: T1, IL15-IL15 receptor (Homo sapiens); assay: Inhibition of IL-15 (unknown origin)/IL-15Ralpha interaction in human PBMC cells assessed as reduction of IL-17 synthesis preincubated for 30 mins followed by IL-15 addition measured after 48 hrs by ELISA

T1 sequence (P40933 49-162 limits assumed): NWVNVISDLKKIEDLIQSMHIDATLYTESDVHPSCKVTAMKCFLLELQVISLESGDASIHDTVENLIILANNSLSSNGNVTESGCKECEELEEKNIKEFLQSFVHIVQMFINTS
T1 sequence (Q13261 31-267 partner limits assumed): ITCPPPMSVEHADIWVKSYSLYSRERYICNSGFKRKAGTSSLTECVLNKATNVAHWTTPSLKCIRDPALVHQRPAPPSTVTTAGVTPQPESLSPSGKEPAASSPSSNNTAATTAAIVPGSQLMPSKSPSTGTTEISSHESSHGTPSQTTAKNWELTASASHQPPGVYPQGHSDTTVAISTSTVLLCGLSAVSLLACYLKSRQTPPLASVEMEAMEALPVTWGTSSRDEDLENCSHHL

SMILES | TNF-alpha synthesis inhibition (active/not active) [1] | Activity (PBMC) | inhibition [2]
NC(N)=NC(=O)CNCC(=O)N=C(N)N | Active | Non-Toxic | Active
O=C(O)c1ccc(CNC(=O)C2CC=CCC2C(=O)O)cc1 (configuration not stated) | inactive | Non-Toxic | inactive
COC(=O)CCC(=O)NCc1ccc(C(=O)OC)cc1 | Active | Non-Toxic | Active
O=C(O)c1ccc(CSc2nnnn2-c2ccc(F)cc2)cc1 | Active | Non-Toxic | Active
COc1ccc(S(=O)(=O)Nc2cccc(C(=O)O)c2)cc1C(=O)O | inactive | Non-Toxic | inactive
C/C(C/C(C)=N/N=C(N)N)=N\N=C(N)N | Active | Non-Toxic | Active
COC(=O)c1ccc(O)c(C)c1O | Active | Non-Toxic | Active
O=C(O)c1ccc(CNC(=O)C2C3CCC(C3)C2C(=O)O)cc1 (configuration not stated) | Active | Non-Toxic | Active
NCCC(=O)N[C@@H](Cc1cnc[nH]1)C(=O)O [CARNOSINE] | – | Non-Toxic | –
Cc1nnc(SCC2=C(C(=O)O)N3C(=O)[C@@H](NC(=O)Cn4cnnn4)[C@H]3SC2)s1 [CEFAZOLIN] | Active | Non-Toxic | Active
NC(CCCCCCC(N)C(=O)O)C(=O)O (configuration not stated) | Active | Non-Toxic | Active
O=C(O)CCC(=O)NCc1ccc(C(=O)O)cc1 | inactive | Non-Toxic | inactive
O=C(O)Cc1ccc(NC(=O)C2CC=CCC2C(=O)O)cc1 (configuration not stated) | inactive | Non-Toxic | inactive
CCC(=O)Nc1ccc(Cc2ccc(NC(=O)CC)c(C(=O)O)c2)cc1C(=O)O | inactive | Non-Toxic | inactive
O=C(O)c1ccc(CSc2nnnn2C2CCCCC2)cc1 | inactive | Non-Toxic | inactive
NCCC(=O)N[C@@H](Cc1c[nH]cn1)C(=O)O | inactive | – | inactive
NCCC(=O)NCCc1c[nH]cn1 [CARCININE] | Active | Non-Toxic | Active
COc1ccc(-n2nnnc2S(=O)(=O)Cc2ccc(C(=O)O)cc2)cc1 | inactive | Non-Toxic | inactive
O=C(O)CCC(=O)Nc1cc(NC(=O)CCC(=O)O)cc(C(=O)O)c1 | Active | Non-Toxic | Active
O=C(O)c1ccc(CNC(=O)C2CCCCC2C(=O)O)cc1 (configuration not stated) | Active | Non-Toxic | Active
